The target of series [1] is CYP2C9 (Homo sapiens, UniProt P11712). The series can be described thus: CYP inhibition assay. The series is classed as in vitro ADME. Conditions: read-out: % Inhibition at 30 μM CYP 2C9.
For series [2], the system named is S-HeLa stably expressing a YFP-Parkin fusion protein. The series can be described thus: Mitophagy cellular assay. The series is classed as cell-based. Conditions: YFP-Parkin HeLa cells, compound with 6 μM CCCP, Tomm20 negative cells (FIG. 4). How it is done: The mitophagy cellular assay was performed as follows:
S-HeLa stably expressing a YFP-Parkin fusion protein were utilised in high content screening assays to assess Parkin-dependent endpoints. 4000 cells were seeded in each well of a 96 well plate (Perkin Elmer ViewPlate-96 F TC, cat. N. 6005182) and left to grow for 24 hours. Cells were then incubated with vehicle (DMSO) or increasing concentrations of compound (1, 2.5, 5, 10 μM) for 1 hour prior to adding 6 μM carbonyl cyanide m-chlorophenyl hydrazone (CCCP), each condition run in replicate of three. After 20 hours, the cells were processed for immunofluorescence.
Samples were fixed in 4% PFA for 25 minutes RT and permeabilized with PBS 0.1% Triton-X100 for 3 minutes on ice, blocked with PBS 3% BSA, 0.3% Triton-X100 for 2 hours RT, followed by overnight incubation with primary antibody at 4° C. […] 18 images were acquired for each well using the following combination of excitation/emission filters: Hoechst33342 was excited through a 350/50 nm band pass filter and fluorescence intensity was collected through a 460/30 band pass filter. YFP was excited through a 500/20 nm band pass filter and fluorescence intensity was collected through a 540/35 band pass filter. DyLight 649 was excited through a 640/30 nm band pass filter and fluorescence intensity was collected through 700/75 band pass filter. […]

Series [3] concerns 44 protein targets. The series can be described thus: Selectivity screen against 44 protein targets (whole panel). It counts as binding. Conditions: 10 μM; % inhibition less than 50% is considered no effect. An excerpt:
If the % inhibition is less than 50%, the test compounds is consider to have no effect.

Results on one compound are retold here after patent publication US10889553B2, “Asymmetric triazole benzamide derivatives and the compositions and methods of treatment regarding the same” (NysnoBio Ireland DAC, priority 2017, dated 2021).

Sequence of CYP2C9 (P11712 whole entry, the tested form may be a part): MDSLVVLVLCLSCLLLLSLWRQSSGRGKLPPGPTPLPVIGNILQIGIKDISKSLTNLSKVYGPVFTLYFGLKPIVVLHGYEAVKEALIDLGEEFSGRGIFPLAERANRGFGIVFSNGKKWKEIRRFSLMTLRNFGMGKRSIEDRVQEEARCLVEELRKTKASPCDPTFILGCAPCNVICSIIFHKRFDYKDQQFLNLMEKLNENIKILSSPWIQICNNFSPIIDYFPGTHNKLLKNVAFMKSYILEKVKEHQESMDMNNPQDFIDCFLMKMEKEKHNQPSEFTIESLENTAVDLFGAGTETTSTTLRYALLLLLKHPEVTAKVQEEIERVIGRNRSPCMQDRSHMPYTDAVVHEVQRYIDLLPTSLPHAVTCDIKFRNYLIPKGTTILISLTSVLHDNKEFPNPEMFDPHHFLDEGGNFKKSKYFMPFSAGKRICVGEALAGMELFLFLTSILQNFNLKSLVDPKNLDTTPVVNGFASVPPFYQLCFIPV

With `Cc1ccccc1C(=O)Nc1nc(NC(=O)c2ccccc2C)n(-c2ccc(OC(F)(F)F)cc2)n1` [Compound 42, N,N′-(1-(4-(trifluoromethoxy)phenyl)-1H-1,2,4-triazole-3,5-diyl)bis(2-methylbenzamide)], the inhibition at 30 μM in series [1] was found to be 11.8%. In series [2], the “mitophagy / removal of damaged mitochondria” value is given as “increases removal of damaged mictochondria”. Moreover, the “effect against the 44 protein targets” value in series [3] is on record as “no effects”.
